Test results as given in PMC8759730, “Targeting allosteric sites of human aromatase: a comprehensive in-silico and in-vitro workflow to find potential plant-based anti-breast cancer therapeutics” (Journal of Enzyme Inhibition and Medicinal Chemistry, 2021).
Where two headings read alike, the source gives them in different places.

What was measured:
[1] = test system: MCF-7 (ER+) cells; assay: Antiproliferative assay, MCF-7; assay type: cell-based; settings: for IC50: read-out: MCF-7 IC50
[2] = test system: MDA-MB-231 (ER-) cells; assay: Antiproliferative assay, MDA-MB-231; assay type: cell-based
[3] = molecular target: T1, Recombinant Human Aromatase (HA) (Homo sapiens, UniProt P11511); assay: HA inhibition assay (Aromatase Inhibitor Screening Kit, fluorogenic substrate); assay type: biochemical; settings: for Ki: values inside parenthesis, unit inferred, read-out: HA (Ki), inhibition constant (converted)
T1 sequence (P11511 1-503): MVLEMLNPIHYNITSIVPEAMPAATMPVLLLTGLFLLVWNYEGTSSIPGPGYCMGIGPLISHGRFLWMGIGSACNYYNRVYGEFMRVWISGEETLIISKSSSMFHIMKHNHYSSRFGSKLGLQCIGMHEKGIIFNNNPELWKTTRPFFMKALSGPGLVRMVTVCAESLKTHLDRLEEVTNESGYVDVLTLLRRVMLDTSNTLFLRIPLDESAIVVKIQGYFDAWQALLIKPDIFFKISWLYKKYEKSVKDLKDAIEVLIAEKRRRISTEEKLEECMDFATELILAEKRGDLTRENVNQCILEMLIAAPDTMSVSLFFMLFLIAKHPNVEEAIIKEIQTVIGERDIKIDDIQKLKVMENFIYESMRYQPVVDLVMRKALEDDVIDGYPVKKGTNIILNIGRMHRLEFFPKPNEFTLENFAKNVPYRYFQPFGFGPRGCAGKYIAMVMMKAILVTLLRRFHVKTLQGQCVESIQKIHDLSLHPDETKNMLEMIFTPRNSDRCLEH

[4] = Homo sapiens, MDA-MB-231, 72 h, read-out: MDA-MB-231 IC50
[5] = Homo sapiens, MCF7, 72 h, 72 h, with 10 µM testosterone undecanoate
[6] = tested at 200-0.1 µM, triplicate, read-out: HA IC50
[7] = Homo sapiens, MDA-MB-231, 72 h, 72 h; read-out: MDA-MB-231 IC50
[8] = kinetic experiments at varied substrate concentration

SMILES | IC50 [1, 5] | HA inhibitory activity (in words) [3] | IC50 [3, 6] | IC50 [2, 7] | also measured
O=c1cc(-c2ccc(O)cc2)oc2cc(O)cc(O)c12 [Apigenin] |  |  |  |  | IC50 ([1]; Homo sapiens, MCF7, 72 h): 13.6 ± 3.5 µM; IC50 [2, 4]: 60 ± 1.6 µM
COc1ccc(-c2cc(=O)c3c(OC)c(OC)c(OC)c(OC)c3o2)cc1 [Tangeretin] | 30.3 ± 2.1 µM | inactive | > 100 µM | 45.6 ± 3.8 µM | 
N#Cc1ccc(C(c2ccc(C#N)cc2)n2cncn2)cc1 [Letrozole, reference compound] | 5.6 ± 1.1 µM |  |  | 41.3 ± 2.1 µM | 
CC1=CC(=O)CC(C)(C)[C@@]1(O)/C=C/C(C)=C\C(=O)O [Abscisic acid] |  | inactive | > 100 µM |  | Activity against MCF-7 (in words) [1]: inactive; IC50 ([1]; Homo sapiens, MCF7, 72 h): > 100 µM; Activity against MDA-MB-231 (in words) [2]: inactive; IC50 [2, 4]: > 100 µM
Cc1coc2c1C(=O)C(=O)c1c-2ccc2c1CCCC2(C)C [Tanshinone IIA] | ~2.1 µM |  | 42.5 ± 1.2 µM | ~2.1 µM | IC50 ([1]; 72 h, with 10 µM testosterone undecanoate): 1.4 ± 1.3 µM; Mode of inhibition [3, 8]: Non-competitive; Ki [3]: 40.9 µM; IC50 ([2]; 72 h; read-out: MDA-MB-231 IC50): 3.7 ± 1.7 µM
Oc1ccc(/C=C/c2cc(O)cc(O)c2)cc1 [Resveratrol] | 11 ± 2.2 µM |  |  | 38 ± 3.5 µM | 
CC(C)=CCc1c2c(c3occ(-c4ccc(O)c(O)c4)c(=O)c3c1O)C=CC(C)(C)O2 [Pomiferin] | 5.4 ± 2.2 µM |  | 15.1 ± 0.5 µM | 30.9 ± 3.1 µM | Mode of inhibition [3, 8]: Non-competitive; Mode of inhibition ([3]; kinetic experiments at varied substrate concentration, listed as pomiferin): non-competitive inhibition; Ki [3]: 14.8 µM
C=C(C)[C@@H]1CC[C@]2(CO)CC[C@]3(C)[C@H](CC[C@@H]4[C@@]5(C)CC[C@H](O)C(C)(C)[C@@H]5CC[C@]43C)[C@@H]12 [Betulin] |  | very weak inhibitory activity |  |  | Activity against MCF-7 (in words) [1]: very weak inhibitory activity; IC50 ([1]; Homo sapiens, MCF7, 72 h): 67 ± 2.6 µM; IC50 [3]: 95.3 µM; Mode of inhibition [3]: Non-competitive; Activity against MDA-MB-231 (in words) [2]: very weak inhibitory activity; IC50 ([2]; Homo sapiens, MDA-MB-231, 72 h; read-out: MDA-MB-231 IC50): > 100 µM
C[C@@H]1O[C@@H](OC[C@H]2O[C@@H](Oc3c(-c4ccc(O)c(O)c4)oc4cc(O)cc(O)c4c3=O)[C@H](O)[C@@H](O)[C@@H]2O)[C@H](O)[C@H](O)[C@H]1O [Rutin] | > 100 µM | inactive | > 100 µM | > 100 µM | Activity against MCF-7 (in words) [1]: inactive; Activity against MDA-MB-231 (in words) [2]: inactive
COc1ccc2cc3[n+](cc2c1OC)CCc1cc2c(cc1-3)OCO2 [Berberine] | 10.2 ± 2.6 µM |  | 21.4 ± 0.9 µM | > 100 µM | Mode of inhibition [3, 8]: Non-competitive; Mode of inhibition ([3]; kinetic experiments at varied substrate concentration, listed as berberine): non-competitive inhibition; Ki [3]: 20.1 µM
O=c1cc(-c2ccccc2)oc2cc(O)cc(O)c12 [Chrysin] | 7.8 ± 2.8 µM |  |  | 65 ± 2.3 µM | 
